The record followed here is patent publication US20250152718A1, “NUCLEIC ACID DELIVERY MATERIAL” (National University Corporation Tokai National Higher …, priority 2022, published 2025).

The subject of the assay is HEK293T cells. The assay is described as follows: Nucleic acid delivery test (plasmid DNA with GFP gene, quantitative PCR). The format is cell-based. The following applies: buffered saline HBS, plasmid DNA 4.7 kb with GFP gene, after 48 hours. How it is done:
Dimethylformamide solutions (10 mmol/L, 1 μL) of the aromatic compounds shown in Tables 1 and 2 were each dissolved in the buffered salines (25 μL) shown in Tables 1 and 2. However, in Comparative Example 2, no aromatic compound was used, and only dimethylformamide was used. The two resulting solutions were mixed and allowed to stand at room temperature for 30 minutes to complex the aromatic compound with the plasmid DNA. Thereafter, 450 μL of the buffered saline used for the complexification and 500 μL of Dulbecco's modified Eagle medium (DMEM, Wako) containing 10% fetal bovine serum were added, and the resulting complex was added to HEK293T cells (mammalian cells). After 48 hours, the amount of nucleic acid was measured by quantitative PCR.
In Tables 1 to 3, as for the buffered salines, “MEM” means Eagle's minimum essential medium, “TBS” means Tris-buffered saline, “HBS” means HEPES-buffered saline, and “MBS” means MES-buffered saline.
In the case of `NCCc1ccc(-c2cc3c(-c4ccc(CCN)cc4)cc4c(-c5ccc(CCN)cc5)cc5c(-c6ccc(CCN)cc6)cc6c(-c7ccc(CCN)cc7)cc2c2c6c5c4c32)cc1` [KTU192], the “Amount of nucleic acid relative comparison with Example 1” value is given as 0.6727.

Take `c1cc(N2CCNCC2)ccc1-c1cc2c(-c3ccc(N4CCNCC4)cc3)cc3c(-c4ccc(N5CCNCC5)cc4)cc4c(-c5ccc(N6CCNCC6)cc5)cc5c(-c6ccc(N7CCNCC7)cc6)cc1c1c5c4c3c21` [KTU205]: the “Amount of nucleic acid relative comparison with Example 1” value was 1.112.

For `NCCOc1ccc(-c2cc3c(-c4ccc(OCCN)cc4)cc4c(-c5ccc(OCCN)cc5)cc5c(-c6ccc(OCCN)cc6)cc6c(-c7ccc(OCCN)cc7)cc2c2c6c5c4c32)cc1` [KTU204], the “Amount of nucleic acid relative comparison with Example 1” value worked out at 0.6309.
